The values that follow come from patent US8961946B2, “Hair processing agent and method for permanent waving hair” (Showa Denko K.K., priority 2004, dated 2015).

A short description of the assay: Waving efficiency at various pH, compounds (i) and (ii) tested singly (FIG. 1). The following applies: agent contains the compound at 2% by mass in terms of thioglycolic acid. The source says:
The hair processing agents tested herein contain the compound at 2% by mass in terms of thioglycolic acid. […] Consequently, the compounds (i) and (ii) in combination provide a permanent waving performance over a wide pH range.

Structures can show the parent of a compound that is named as a salt.

For `O=C1OCCC1S` (centres unmarked) [Synthetic Example 1, 2-mercapto-4-butyrolactone], the “Changes of waving efficiency at various pH (FIG. 1)” value is on record as “high waving efficiency in an acidic to neutral pH range”.

With `NCCS` [compound (ii), cysteamine hydrochloride], the “Changes of waving efficiency at various pH (FIG. 1)” value is “low waving efficiency at acidic pH, but the waving efficiency linearly increases with the pH increase”.
